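Cells were grown in 96-well plates and exposed to each compound for 48 hours at five concentrations; endpoints were interpolated linearly between bracketing concentrations, or set to the highest concentration if not reached. At the GI50, growth is halved.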 Calls of active or inactive are those of the source. Cut-off read from the data, not from the text of the source: active = GI50 up to about 1.1 µM and inactive = higher.
Experiments:
Test in all cases: DTP human tumour cell line panel, 48 h
Hs-578T = system: Hs-578T
MDA-N = system: MDA-N
DMS-114 = system: DMS-114
DMS-273 = system: DMS-273
HOP-18 = system: HOP-18
M19-MEL = system: M19-MEL
RXF 631 = system: RXF 631
SNB-78 = system: SNB-78
XF498 = system: XF498

Measured: GI50

COc1ccc(CCNC2=CC(=O)c3ncccc3C2=O)cc1OC
inactive: Hs-578T 1.19 µM | MDA-N 1.18 µM

CC1OC(=O)N2CCC=CC12 (configuration not stated)
inactive: DMS-114 > 100 µM | DMS-273 > 100 µM | HOP-18 > 100 µM | M19-MEL > 100 µM | RXF 631 > 100 µM | SNB-78 > 100 µM | XF498 > 100 µM

CCOC(=O)/C=C1\Nc2ccccc2-n2nnnc21
inactive: DMS-114 > 100 µM | DMS-273 30.3 µM | HOP-18 > 100 µM | M19-MEL > 100 µM | SNB-78 > 100 µM

CC(C)(C)O/N=C/c1cc(NC(=S)c2ccccc2)ccc1Cl
inactive: Hs-578T 22.5 µM | MDA-N 14.2 µM

CC1=NN2CCC(=O)N=C2S1
inactive: Hs-578T > 100 µM | MDA-N > 100 µM

COC(=O)C(=O)CC(=O)c1cccc(OC)c1
inactive: Hs-578T > 100 µM | MDA-N 5.66 µM

COc1ccc2c(c1)/C(=C(\C(Cl)=C(Cl)Cl)[N+](=O)[O-])N2
inactive: Hs-578T 80.2 µM | MDA-N 83.2 µM

COc1nc2c(c(=O)n1C)N(C(C)=O)C1C(N2)OCC(OC(C)=O)C1OC(C)=O (configuration not stated)
inactive: Hs-578T > 10 µM | MDA-N > 10 µM

CCOC(=O)c1cccc(/N=N/c2ncc(/C=C/C(=O)OC)[nH]2)c1
inactive: Hs-578T 39.9 µM | MDA-N 15.7 µM

CSC1(SC)CCCCCCCCCCC1
inactive: Hs-578T 43.1 µM | MDA-N 42.8 µM

NNc1cnn(-c2ccccc2)c(=O)c1Cl
inactive: DMS-114 > 100 µM | DMS-273 > 100 µM | HOP-18 > 100 µM | M19-MEL > 100 µM | SNB-78 > 100 µM

Fc1ccc(F)c(C2SCc3nc4ccccc4n32)c1 (configuration not stated)
inactive: DMS-114 23.5 µM | DMS-273 20.5 µM | HOP-18 89.1 µM | M19-MEL 48.2 µM | SNB-78 52.5 µM

CC(C)C1CC(O)O[C@@H]([C@@H](C)[C@H]2CC(=O)[C@@H]3[C@@H]4[C@@H](O)[C@H](O)[C@H]5[C@@H](O)[C@H](O)CC[C@]5(C)[C@H]4CC[C@]23C)C1 (some centres not stated)
inactive: DMS-273 39.8 µM | M19-MEL 37.1 µM | SNB-78 38.9 µM | XF498 18.9 µM

CN(C)CC[N+](C)(C)[BH2-]C(O)O
inactive: Hs-578T > 100 µM | MDA-N > 100 µM

C/C(=N/c1[nH]c(=O)cc2c1C(=O)CC2)N(C)C
inactive: Hs-578T > 200 µM | MDA-N > 200 µM

CC(C)(C)c1c2c(c(C(C)(C)C)c3c1OCN(Cc1ccccc1)C3)OCN(Cc1ccccc1)C2
inactive: Hs-578T 20.4 µM | MDA-N 11.7 µM

O=C(Nc1ccc(Cl)cc1Cl)C1C(=O)N(c2ccc(Cl)cc2Cl)C(=O)/C1=N\Nc1ccc([N+](=O)[O-])cc1[N+](=O)[O-] (configuration not stated)
inactive: DMS-114 13.2 µM | DMS-273 46.6 µM | HOP-18 17.9 µM | M19-MEL 59.3 µM | RXF 631 62.2 µM | SNB-78 > 100 µM

O=C(Nc1ccc(Cl)cc1Cl)C1C(=O)C(=O)N(c2ccc(Cl)cc2Cl)C1=O (configuration not stated)
inactive: DMS-114 > 100 µM | HOP-18 > 100 µM | M19-MEL > 100 µM | SNB-78 > 100 µM

O=C(/C=N/O)Nc1ccc(Cl)c(I)c1
inactive: DMS-114 16.6 µM | DMS-273 18.4 µM | M19-MEL 22.4 µM | XF498 21.6 µM

O=C1NC(=O)C2C(=O)NC(=O)C1C2Cc1ccco1 (configuration not stated)
inactive: DMS-114 > 100 µM | DMS-273 > 100 µM | M19-MEL > 100 µM | SNB-78 > 100 µM | XF498 > 100 µM

Cc1csc2nc3c(cnn3C)c(=S)n12
inactive: Hs-578T 12.8 µM | MDA-N > 100 µM

COC(=O)C1C2C=CC(C2)N1[C@@H](C)c1ccccc1 (some centres not stated)
inactive: DMS-273 > 100 µM | HOP-18 > 100 µM | M19-MEL > 100 µM | SNB-78 > 100 µM

CCOC(=O)C1=C(C)C2C3C(=O)OC(=O)C3C1(C)C1C(=O)OC(=O)C21 (configuration not stated)
inactive: DMS-114 > 100 µM | DMS-273 > 100 µM | M19-MEL > 100 µM | RXF 631 > 100 µM | SNB-78 > 100 µM

C[C@@H]1C[C@@H]2OC(=O)[C@]3(C)[C@H]2[C@@H](OC3(C)O)[C@]2(C)C(=O)C=C[C@@H]12 (some centres not stated) [TENULIN]
inactive: Hs-578T 51.6 µM | MDA-N 17.5 µM

Cc1nnc(N)nc1/C=C\c1ccc(N(C)C)cc1
inactive: Hs-578T 5.82 µM | MDA-N 17.4 µM

COc1cc(OC)c2ssc3c(OC)cc(OC)c4ssc1c2-c43
inactive: DMS-114 > 100 µM | DMS-273 > 100 µM | HOP-18 > 100 µM | M19-MEL > 100 µM | SNB-78 > 100 µM | XF498 > 100 µM

CCOC(=O)CCC(NC(=O)c1ccc(Nc2nc3ccccc3nc2C(=O)OCC)cc1)C(=O)OCC (configuration not stated)
inactive: Hs-578T 3.1 µM | MDA-N 3.89 µM

Cc1ncc(CSc2ccccc2N)c(CO)c1O
inactive: Hs-578T > 100 µM | MDA-N > 100 µM

N#C/C(=C1\SC(/N=N/c2ccccc2)C(=O)N1c1ccccc1)c1nc2ccccc2[nH]1 (configuration not stated)
inactive: DMS-114 > 100 µM | DMS-273 45.7 µM | M19-MEL > 100 µM | SNB-78 > 100 µM | XF498 17.7 µM

Reference: ChEMBL document CHEMBL1201862, “PubChem BioAssay data set” (2004)
